{"source": "patent US20110015080A1", "about": "“Solution-based methods for RNA expression profiling” (MASSACHUSETTS INSTITUTE OF TECHNOLOGY, priority 2005, published 2011)", "tested_on": "HL60 (human promyelocytic leukemia) cells", "assay": "LMA-FlexMAP bead-based gene expression signature analysis of total RNA from HL60 cells treated with tretinoin or DMSO (ninety transcripts); on FlexMap GAPDH M LUA#94: test concentration or dose not given here; on FlexMap NM 000147 LUA#29: test concentration or dose not given here; on FlexMap NM 001948 LUA#84: test concentration or dose not given here", "key": {"[1]": {"settings": "Experiment 2, Tretinoin, replicate columns"}}, "note": "Several values for one entry are separate records, joined by “and”; a condition that tells them apart may be missing. Equal entries are not always repeated.", "data": [{"molecule": "CC1=C(/C=C/C(C)=C/C=C/C(C)=C/C(=O)O)C(C)(C)CCC1", "note": "[tretinoin, all-trans-retinoic acid]", "values": [{"measurement": "NM_005952 LUA#66 FlexMAP signal", "setting": "Experiment 1, tretinoin-treated HL60, transcript NM_005952, replicate columns", "result": "172 and 212 and 149 and 198.5 and 72.5 and 189 and 203 and 95.5 and 188.5 and 182"}, {"measurement": "NM_005980 LUA#73 FlexMAP signal", "setting": "Experiment 1, tretinoin-treated HL60, transcript NM_005980, replicate columns", "result": "145 and 173 and 163 (2×) and 57 and 142 and 74 and 149.5 and 151"}, {"measurement": "NM_006019 LUA#35 FlexMAP signal", "setting": "Experiment 1, tretinoin-treated HL60, transcript NM_006019, replicate columns", "result": "746 and 867 and 569 and 818 and 186 and 828 and 762 and 287 and 767 and 734.5"}, {"measurement": "NM_006138 LUA#56 FlexMAP signal", "setting": "Experiment 1, tretinoin-treated HL60, transcript NM_006138, replicate columns", "result": "114 and 130 and 93 and 124 and 51.5 and 113.5 and 115.5 and 66 and 122 and 114.5"}, {"measurement": "NM_006432 LUA#27 FlexMAP signal", "setting": "Experiment 1, tretinoin-treated HL60, transcript NM_006432, replicate columns", "result": "1294.5 and 1495 and 1081.5 and 1409.5 and 397 and 1446 and 1405 and 625 and 1345 and 1203"}, {"measurement": "NM_006452 LUA#71 FlexMAP signal", "setting": "Experiment 1, tretinoin-treated HL60, transcript NM_006452, replicate columns", "result": "78.5 and 76 and 67.5 and 79.5 and 41 and 75 and 68 and 53.5 and 82 and 74"}, {"measurement": "NM_006985 LUA#58 FlexMAP signal", "setting": "Experiment 1, tretinoin-treated HL60, transcript NM_006985, replicate columns", "result": "52 and 54 and 47 and 59 and 37 and 55 and 56 and 40 and 57 and 51"}, {"measurement": "NM_007282 LUA#16 FlexMAP signal", "setting": "Experiment 1, tretinoin-treated HL60, transcript NM_007282, replicate columns", "result": "60.5 and 60 and 39 and 64.5 (2×) and 42.5 and 64 and 62 and 56 and 61"}, {"measurement": "NM_014333 LUA#26 FlexMAP signal", "setting": "Experiment 1, tretinoin-treated HL60, transcript NM_014333, replicate columns", "result": "472 and 584 and 366.5 and 531 and 134 and 492 and 530 and 197.5 and 497 and 459.5"}, {"measurement": "NM_014366 LUA#61 FlexMAP signal", "setting": "Experiment 1, tretinoin-treated HL60, transcript NM_014366, replicate columns", "result": "213 and 263 and 163 and 235 (2×) and 66 and 231 (2×) and 97 and 209.5"}, {"measurement": "NM_014573 LUA#70 FlexMAP signal", "setting": "Experiment 1, tretinoin-treated HL60, transcript NM_014573, replicate columns", "result": "135 and 155 (2×) and 99 and 153.5 and 61 and 138 and 79 and 138.5 and 144.5"}, {"measurement": "NM_015201 LUA#57 FlexMAP signal", "setting": "Experiment 1, tretinoin-treated HL60, transcript NM_015201, replicate columns", "result": "181 and 226.5 and 139 and 222 and 64 and 208 and 203 and 87 and 194.5 and 183"}, {"measurement": "NM_018115 LUA#63 FlexMAP signal", "setting": "Experiment 1, tretinoin-treated HL60, transcript NM_018115, replicate columns", "result": "506.5 and 644 and 552.5 and 735.5 and 143 and 690 and 601 and 227.5 and 582 and 418"}, {"measurement": "NM_018164 LUA#69 FlexMAP signal", "setting": "Experiment 1, tretinoin-treated HL60, transcript NM_018164, replicate columns", "result": "140.5 and 177 and 131 and 165 and 57 and 152.5 and 155 and 75 and 143 and 142"}, {"measurement": "NM_018256 LUA#83 FlexMAP signal", "setting": "Experiment 1, tretinoin-treated HL60, transcript NM_018256, replicate columns", "result": "1557 and 747 and 897 and 726 and 388 and 903 and 998 and 589 and 1256.5 and 1208"}, {"measurement": "NM_018890 LUA#33 FlexMAP signal", "setting": "Experiment 1, tretinoin-treated HL60, transcript NM_018890, replicate columns", "result": "705 and 824 and 537.5 and 758 and 187.5 and 788 and 743.5 and 293.5 and 719 and 712"}, {"measurement": "NM_019058 LUA#75 FlexMAP signal", "setting": "Experiment 1, tretinoin-treated HL60, transcript NM_019058, replicate columns", "result": "143.5 and 158 (2×) and 143 and 164 and 59 and 152 and 79.5 and 148.5 and 129"}, {"measurement": "NM_020117 LUA#78 FlexMAP signal", "setting": "Experiment 1, tretinoin-treated HL60, transcript NM_020117, replicate columns", "result": "527 and 607 and 408 and 584.5 and 145 and 554 and 564 and 230 and 529.5 and 519"}, {"measurement": "NM_021103 LUA#41 FlexMAP signal", "setting": "Experiment 1, tretinoin-treated HL60, transcript NM_021103, replicate columns", "result": "2412 and 2719 and 2257.5 and 2689 and 925 and 2668.5 and 2611 and 1370 and 2590 and 2454"}, {"measurement": "NM_021203 LUA#80 FlexMAP signal", "setting": "Experiment 1, tretinoin-treated HL60, transcript NM_021203, replicate columns", "result": "547 and 654 and 442.5 and 642.5 and 151 and 578.5 and 611 and 228.5 and 563 and 546"}, {"measurement": "NM_021974 LUA#64 FlexMAP signal", "setting": "Experiment 1, tretinoin-treated HL60, transcript NM_021974, replicate columns", "result": "1003 and 1158 and 872 and 1105 and 293.5 and 1102.5 and 1052.5 and 477.5 and 1068 and 955"}, {"measurement": "NM_024045 LUA#65 FlexMAP signal", "setting": "Experiment 1, tretinoin-treated HL60, transcript NM_024045, replicate columns", "result": "124 and 146 and 100 and 145 and 52 and 141 and 142 and 69 and 133 and 119"}, {"measurement": "TFRC LUA#92 FlexMAP signal", "setting": "Experiment 1, tretinoin-treated HL60, transcript TFRC, replicate columns", "result": "250 and 305 and 191.5 and 285 and 81.5 and 280.5 and 289 and 109 and 272 and 251.5"}, {"measurement": "FlexMap ACTB LUA#91", "setting": "[1]", "result": "2807 and 2986 and 107 and 2939 and 1020 and 2820 and 2870 and 2791 and 2727 and 2873.5"}, {"measurement": "FlexMap GAPDH_3 LUA#95", "setting": "[1]", "result": "3075 and 2896 and 139.5 and 2850 and 1137 and 3025 and 3066 and 2936 and 2973 and 3162.5"}, {"measurement": "FlexMap GAPDH_5 LUA#93", "setting": "[1]", "result": "1888 and 1977.5 and 72 and 1965.5 and 509 and 1847 and 2001 and 1834.5 and 1691 and 1994"}, {"measurement": "FlexMap GAPDH_M LUA#94", "setting": "[1]", "result": "1814 and 1595.5 and 73 and 1871 and 514 and 1911 and 2010.5 and 1693.5 and 1762.5 and 1932.5"}, {"measurement": "FlexMap NM_000147 LUA#29", "setting": "[1]", "result": "1102 and 1135 and 36 and 1106 and 236 and 1132 and 1122.5 and 1051 and 1086 and 1171"}, {"measurement": "FlexMap NM_000211 LUA#39", "setting": "[1]", "result": "1639.5 and 1219 and 89 and 1828 and 470 and 1717 and 1734.5 and 1593.5 and 1570 and 1763"}, {"measurement": "FlexMap NM_000250 LUA#87", "setting": "[1]", "result": "236 and 228 and 39 and 249 and 70 and 246 and 243 and 232 and 239.5 and 253"}, {"measurement": "FlexMap NM_000414 LUA#22", "setting": "[1]", "result": "564.5 and 544 and 34 and 547 and 115.5 and 596 and 561.5 and 550.5 and 543 and 598.5"}, {"measurement": "FlexMap NM_000433 LUA#28", "setting": "[1]", "result": "786.5 and 574 and 34 and 810 and 158 and 860 and 842 and 753 and 724 and 823"}, {"measurement": "FlexMap NM_000584 LUA#30", "setting": "[1]", "result": "2339.5 and 2517.5 and 72 and 2315 and 665 and 2389 and 2341.5 and 2247 and 2269 and 2450"}, {"measurement": "FlexMap NM_000884 LUA#81", "setting": "[1]", "result": "963.5 and 841 and 61 and 951 and 259.5 and 1004 and 988 and 925 and 916 and 1010"}, {"measurement": "FlexMap NM_001034 LUA#67", "setting": "[1]", "result": "260 and 246 and 32.5 and 280 and 65 and 281 and 253 and 271 and 252 and 276"}, {"measurement": "FlexMap NM_001101 LUA#34", "setting": "[1]", "result": "3017 and 2733 and 211 and 3046 and 1578 and 3029 and 3195 and 2934 and 2997 and 3139.5"}, {"measurement": "FlexMap NM_001469 LUA#79", "setting": "[1]", "result": "1315 and 1107 and 73 and 1230 and 333.5 and 1437 and 1331.5 and 1308 and 1281.5 and 1360"}, {"measurement": "FlexMap NM_001498 LUA#18", "setting": "[1]", "result": "494.5 and 511 and 32 and 521 and 110.5 and 507.5 and 513 and 441.5 and 467 and 531.5"}, {"measurement": "FlexMap NM_001684 LUA#23", "setting": "[1]", "result": "71 and 75 and 30 and 98 and 38.5 and 66 and 79 and 68 and 77.5 and 83"}, {"measurement": "FlexMap NM_001948 LUA#84", "setting": "[1]", "result": "72 and 70 and 33 and 79.5 and 40 and 68 (2×) and 70.5 and 62 and 81"}, {"measurement": "FlexMap NM_002166 LUA#25", "setting": "[1]", "result": "227 and 254.5 and 30 and 237 and 60 and 230 and 240 and 221 and 242"}, {"measurement": "FlexMap NM_002467 LUA#90", "setting": "[1]", "result": "741 and 823 (2×) and 762.5 and 205 and 792 and 798 and 776 and 759"}, {"measurement": "FlexMap NM_002468 LUA#40", "setting": "[1]", "result": "531.5 and 584 and 35 and 511 and 135 and 556.5 and 549 and 498 and 494 and 589.5"}, {"measurement": "FlexMap NM_002539 LUA#74", "setting": "[1]", "result": "416 and 397 and 33 and 437 and 89 and 423 and 409 and 392 and 368 and 441"}, {"measurement": "FlexMap NM_002624 LUA#36", "setting": "[1]", "result": "1647.5 and 1643 and 71 and 1714 and 670 and 1664 and 1757 and 1580.5 and 1616 and 1772.5"}, {"measurement": "FlexMap NM_002664 LUA#38", "setting": "[1]", "result": "2701.5 and 2723 and 91 and 2815 and 1002 and 2840.5 and 2805 and 2642 and 2652 and 2875"}, {"measurement": "FlexMap NM_002970 LUA#42", "setting": "[1]", "result": "1716.5 and 1563 and 42 and 1624 and 435.5 and 1759.5 and 1743 and 1655.5 and 1575 and 1823"}, {"measurement": "FlexMap NM_002982 LUA#45", "setting": "[1]", "result": "3697 and 3859 and 294 and 3328 and 2094 and 3522 and 3632 and 3562 and 3485 and 3768"}]}]}
